Structures are written as SMILES.

We go through 5 compounds from US20230047816A1 (priority 2018, published 2023).

For data set [1] the following is noted: cited from earlier work.
The conditions of data set [2]: all treated patients; cited from earlier work.
Data set [3] concerns 4T1-M3-Luc breast tumor. The experiment in a line: Orthotopic 4T1-M3-Luc syngeneic breast tumor model. The class given is in vivo, female BALB/c mice. How it is done: The aim of this study was to evaluate the antitumor and anti-metastatic efficacy of GO-672 (4-({4-carboxy-2′,4′-dichloro-[1,1′-biphenyl]-3-yl}carbamoyl)-6-hydroxybenzene-1,3-dicarboxylic acid) (30 mg/kg twice daily, i.p.) in an orthotopic 4T1-M3-Luc syngeneic breast tumor model in female BALB/c mice in vivo.
Level of metastasis was evaluated in lymph nodes, lung, spine and ileum by ex vivo luciferase bioluminescence measurements (FIG. 10D).

The test system of data set [4] is HUVECs. Briefly: Cell viability of HUVECs in normoxia and hypoxia. The class given is cell-based. As to conditions: both normoxia and hypoxia conditions; FIG. 1.
Data set [5] deals with HUVECs. Briefly: HUVEC cell viability (Cyquant NF cell proliferation assay). The settings on record: normoxia (20% O2) and hypoxia (1% O2). The class given is cell-based, human. How it is done: ThermoFisher Cyquant NF cell proliferation assay kit Normoxia conditions: 37° C., 5% CO2, 20% O2 incubator Hypoxia conditions: 37° C., 5% CO2, 1% O2 incubator FIG. 2. Effect of GO-672 on vessel sprouting in vitro. Raw images from the experiment with 3D spheroids of HUVEC after treatment with GO-672 (B) and Sunitinib (A). VEGF-A was used as a stimulation factor. Dose-response plot of GO-672 (C) and Sunitinib (D).

Data set [6] concerns RENCA renal tumor. Briefly: Orthotopic RENCA syngeneic renal tumor model. The class given is in vivo, female BALB/c mice. As to conditions: 30 mg/kg twice daily, i.p. How it is done:
The aim of this study was to evaluate the antitumor efficacy of GO-672 (4-({4-carboxy-2′,4′-dichloro-[1,1′-biphenyl]-3-yl}carbamoyl)-6-hydroxybenzene-1,3-dicarboxylic acid) (30 mg/kg twice daily, i.p.) in an orthotopic RENCA syngeneic renal tumor model in female BALB/c mice in vivo.

The subject of data set [7] is HUVEC spheroids. The experiment in a line: VEGF-A induced sprouting, spheroid-based cellular angiogenesis assay. The class given is cell-based. As to conditions: Homo sapiens. How it is done: The effect of PFKFB3 inhibitors on VEGF-A induced sprouting of HUVECs in a spheroid-based cellular angiogenesis assay. Sunitinib was used as a control. The experiments were pursued in modification of the originally published protocol (Korff and Augustin: J Cell Sci 112: 3249-58, 1999). In brief, spheroids were prepared as described (Korff and Augustin: J Cell Biol 143:1341-52, 1998) by pipetting 500 HUVEC in a hanging drop on plastic dishes to allow overnight spheroid aggregation. 50 HUVEC spheroids were then seeded in 0.9 ml of a collagen gel and pipetted into individual wells of a 24 well plate to allow polymerization. The test compounds in combination with the growth factor VEGF-A at 25 ng/ml final assay concentration) were added after 30 min by pipetting 100 μl of a 10-fold concentrated working solution on top of the polymerized gel. Plates were incubated at 37° C. for 24 hours and fixed by adding 4% Roti-Histofix (Roth, Karlsruhe, Germany). Sprouting intensity of HUVEC spheroids treated with the growth factor and the inhibitors were quantitated by an image analysis system determining the cumulative sprout length per spheroid (CSL) using an inverted microscope and the digital imaging software NIS-Elements BR 3.0 (Nikon). The mean of the cumulative sprout length of 10 randomly selected spheroids was analyzed as an individual data point.

The target in data set [8] is PFKFB3 (Homo sapiens, UniProt Q16875). The settings on record: reported in the literature; cited from earlier work.
PFKFB3, sequence (Q16875 whole entry, species assumed): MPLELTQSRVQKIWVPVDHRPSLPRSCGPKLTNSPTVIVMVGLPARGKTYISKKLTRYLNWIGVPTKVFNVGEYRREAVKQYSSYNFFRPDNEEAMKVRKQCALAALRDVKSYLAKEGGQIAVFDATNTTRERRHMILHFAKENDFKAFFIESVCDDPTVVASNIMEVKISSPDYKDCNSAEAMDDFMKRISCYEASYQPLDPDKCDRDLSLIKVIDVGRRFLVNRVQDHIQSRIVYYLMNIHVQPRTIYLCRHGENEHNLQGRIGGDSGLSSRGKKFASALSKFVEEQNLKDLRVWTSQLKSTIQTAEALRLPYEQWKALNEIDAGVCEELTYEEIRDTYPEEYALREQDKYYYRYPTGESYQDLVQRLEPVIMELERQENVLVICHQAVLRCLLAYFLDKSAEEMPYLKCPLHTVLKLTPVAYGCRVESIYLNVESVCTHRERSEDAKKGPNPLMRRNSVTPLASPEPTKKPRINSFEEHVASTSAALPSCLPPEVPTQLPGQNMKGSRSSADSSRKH
The test system of data set [9] is established tumors. As to conditions: reported in the literature; cited from earlier work.
The test system of data set [10] is activated T-cells. The settings on record: reported in the literature; cited from earlier work.
Data set [11] has as its system angiogenesis. The settings on record: reported in the literature; cited from earlier work.
For data set [12] the following is noted: reported in the literature; cited from earlier work.
Data set [13] deals with MCF-7. Briefly: Combination with anticancer agents, MCF-7. The class given is cell-based. The settings on record: Homo sapiens, MCF7, anticancer agent alone. How it is done:
(§1) All cells can be incubated in the plates overnight at 37° C., 5% 002 incubator with different medium.

Data set [14] relates to T-47D. The experiment in a line: Combination with anticancer agents, T-47D. The class given is cell-based. The settings on record: Homo sapiens, T47D, anticancer agent alone. As for the experimental part:
as §1

For data set [15], the system named is BT-549. The experiment in a line: Combination with anticancer agents, BT-549. The class given is cell-based. As to conditions: Homo sapiens, anticancer agent alone. As for the experimental part: as §1
In data set [16] the test system is Hs-578T. The experiment in a line: Combination with anticancer agents, Hs-578T. The class given is cell-based. The settings on record: Homo sapiens, anticancer agent alone. As for the experimental part:
as §1

Data set [17] relates to MDA-MB-231. The experiment in a line: Combination with anticancer agents, MDA-MB-231. The class given is cell-based. As to conditions: Homo sapiens, anticancer agent alone. How it is done: as §1
Where [18] appears, read: 30 mg/kg twice daily, i.p., day 18.

Take `O=C(O)c1nn(Cc2ccc(Cl)cc2Cl)c2ccccc12` [Lonidamine]: the “toxicities in preclinical trials” value in data set [1] was “significant pancreatic and hepatic toxicities”.

In the case of `O=CC[C@@H](O)[C@H](O)[C@H](O)CO` [2-deoxy-D-glucose], in [2], the “adverse effect in clinical trial” value is “hyperglycemia in all treated patients”.

For the compound `O=C(O)c1cc(C(=O)O)c(C(=O)Nc2cc(-c3ccc(Cl)cc3Cl)ccc2C(=O)O)cc1O` [Compound 1, 4-({4-carboxy-2′,4′-dichloro-[1,1′-biphenyl]-3-yl}carbamoyl)-6-hydroxybenzene-1,3-dicarboxylic acid], the “reduction of body weight vs control group” value in data set [3] (30 mg/kg twice daily, i.p.) is listed as “not significant”. The “T/C ratio (tumor volume)” value was found to be 47% in [3] (30 mg/kg twice daily, i.p., day 4) and 65% in [3] (30 mg/kg twice daily, i.p., day 7). Moreover, the “tumor volume after necropsy” value in [3] (setting [18]) is “significantly lower”; in [6] (day 17), “significantly decreased”. Moreover, the “tumor weight after necropsy” value in data set [3] (setting [18]) was “not tumor weight”; in data set [6] (day 17), “no statistically significant difference”. The “level of metastasis (ex vivo luciferase bioluminescence)” value in data set [3] (lymph nodes, lung, spine and ileum) is “No statistically significant difference”. The “cell viability of HUVECs” value in [4] and in data set [5] was “did not reduce cell viability” in each case. In data set [6] (day 16), the bioluminescence entry is “increase of bioluminescence”. For the same compound, the Emax at 100 µM in [7] (HUVEC, at 100 μM, read-out: maximal effect: decrease of vessel sprouting down to) is roughly 25%. Moreover, in data set [7] (HUVEC, at the highest doses, read-out: maximal effect of vessel reduction, % from the initial level), the Emax is 25 to 50%. For the same compound, the EC50 in [7] (3D HUVEC model, VEGF-A 25 ng/ml, 24 hours, read-out: EC50 of inhibition of vessel sprouting) fell in the range of 20 to 40 µM.

Turning to `O=C(C=Cc1cccnc1)c1ccncc1` [Compound 3PO, 3-(3-pyridinyl)-1-(4-pyridinyl)-2-propen-1-one], in [8], the PFKFB3 inhibition entry is “inhibit PFKFB3”. Moreover, the “growth of established tumors in vivo” value in [9] is reported as “reduce growth of established tumors in vivo”. Further, in data set [10], the “proliferation of activated T-cells” value is “inhibit proliferation of activated T-cells”. Also, the angiogenesis entry in [11] is given as “inhibit angiogenesis”. In [12], the glucose uptake entry is on record as “reduce glucose uptake” and the “intracellular concentration of Fru-2,6-BP” value is “reduce intracellular concentration of Fru-2,6-BP”.

In the case of `NC(=O)c1cccc2cn(-c3ccc([C@@H]4CCCNC4)cc3)nc12` [Niraparib], the IC50 in data set [13] was determined as 14.5 µM; in data set [14], 21 µM; in data set [15], 31 µM; in data set [16], 36 µM; in [17], 14.6 µM.

A word on the EC50: it is the concentration giving half of the maximal effect. For orientation: IC50 means the concentration that gives 50% inhibition.
